The test system of one data set is BMDC. In words: Induction of IL-6 production in mouse BMDC cells at 100 uM. The data set is classed as functional, cell-based.
Data set [1] relates to RAW264.7. In words: Induction of apoptosis in mouse RAW264.7 cells assessed as live cells at 4 uM by flow cytometry analysis (reference value: 75.4 %). It counts as functional. (In general: A flow cytometer gives signals particle by particle.)
In data set [2] the test system is RAW264.7. In words: Induction of apoptosis in mouse RAW264.7 cells assessed as live cells at 12 uM by flow cytometry analysis (reference value: 75.4 %). The data set is classed as functional.
The test system of data set [3] is RAW264.7. In words: Induction of apoptosis in mouse RAW264.7 cells assessed as live cells at 16 uM by flow cytometry analysis (reference value: 75.4 %). The data set is classed as functional.
For data set [4], the system named is RAW264.7. Put plainly: Induction of apoptosis in mouse RAW264.7 cells assessed as apoptotic cells at 4 uM by flow cytometry analysis (reference value: 3.26 %). It counts as functional.
Data set [5] relates to RAW264.7. Put plainly: Induction of apoptosis in mouse RAW264.7 cells assessed as apoptotic cells at 10 uM by flow cytometry analysis (reference value: 3.26 %). It counts as functional.
Data set [6] has as its system RAW264.7. In words: Induction of apoptosis in mouse RAW264.7 cells assessed as apoptotic cells at 16 uM by flow cytometry analysis (reference value: 3.26 %). It counts as functional.
Data set [7] concerns RAW264.7. In words: Induction of apoptosis in mouse RAW264.7 cells assessed as necrotic cells at 12 uM by flow cytometry analysis (reference value: 20.6 %). It counts as functional.
For data set [8], the system named is RAW264.7. Put plainly: Upregulation of CD86 expression in mouse RAW264.7 cells measured after 24 hrs by flow cytometry analysis. It counts as functional, cell-based. Particulars: dose 10-50 µM.
Data set [9] can be described thus: Upregulation of CD40 expression in mouse RAW264.7 cells assessed as fold increase in fluorescence intensity at 20 uM measured after 24 hrs by flow cytometry analysis. The data set is classed as functional.
For a further data set, the species on record is Mus musculus. In words: Induction of immune response in OVAp immunized C57BL/6 mouse assessed as increase in number of antigen-specific IFN-gamma+ CD44+ CD8+ T cells in spleen at 100 ug measured after 35 days by flow cytometry analysis. As to conditions: T-cell, dose 100.0 µg, time 35.0 day. The data set is classed as functional, organism-based.
In a further data set the test system is B16-OVA melanoma cell. Put plainly: Antitumor activity against mouse B16-OVA melanoma cell xenografted in C57BL/6 mouse assessed as at 500 ug administered 5 times for every 2 days from day 9 to 17. The data set is classed as functional, cell-based. Particulars: dose 500.0 µg, time 9.0 day.
Data set [10] can be described thus: Toxicity in C57BL/6 mouse assessed as effect on body weight at 500 ug measured from day 9 to 21. As to conditions: in vivo, 312 h, dose 500 µg, time 13 day.
Data set [11] can be described thus: Antitumor activity against mouse B16-OVA melanoma cell xenografted in C57BL/6 mouse assessed as fold increase in IFN-gamma+TNF-alpha+ at 500 ug, sc in presence of OVAp by flow cytometry analysis. The data set is classed as functional. As to conditions: dose 500 µg.
Data set [12] is described as follows: Toxicity in C57BL/6 mouse assessed as effect on AST level in serum at 500 ug measured after 1 day after immunization. As to conditions: 24 h, dose 500 µg.
Data set [13] can be described thus: Toxicity in C57BL/6 mouse assessed as effect on ALP level in serum at 500 ug measured after 1 day after immunization. Particulars: 24 h, dose 500 µg.
Data set [14] in a line: Toxicity in C57BL/6 mouse assessed as effect on glucose level in serum at 500 ug measured after 1 day after immunization. Particulars: 24 h, dose 500 µg.
The nature of data set [15]: Toxicity in C57BL/6 mouse assessed as effect on lung at 500 ug, sc by H and E staining based analysis. It counts as organism-based. Particulars: in vivo, dose 500 µg.
Data set [16] in a line: Toxicity in C57BL/6 mouse assessed as effect on liver at 500 ug, sc by H and E staining based analysis. It counts as organism-based. As to conditions: in vivo, dose 500 µg.

Results on 1 compound are retold here after ChEMBL document CHEMBL5365463, “Identification of a Self-Assembling Small-Molecule Cancer Vaccine Adjuvant with an Improved Toxicity Profile” (J Med Chem, 2023).

Calls of active or inactive are those of the source. No cut-off for these calls is given here.

Regarding `C[C@H](CCC(=O)NCCCCCCCNC(=O)CC[C@@H](C)[C@H]1CC[C@H]2[C@@H]3CC[C@@H]4C[C@H](O)CC[C@]4(C)[C@H]3C[C@H](O)[C@]12C)[C@H]1CC[C@H]2[C@@H]3CC[C@@H]4C[C@H](O)CC[C@]4(C)[C@H]3C[C@H](O)[C@]12C`, the result with BMDC and in the data set listed under Mus musculus was Active. Also, the Activity in the data set with RAW264.7 [1] came to 77.8%; with RAW264.7 [2], 66.8%; in the data set on RAW264.7 [3], 63.4%; in the data set with RAW264.7 [4] it was 2.1%; with RAW264.7 [5], 2.23%; in the data set with RAW264.7 [6] it was 0.63%. Besides, the Activity is 30.5% with RAW264.7 [7]; “Dose-Dependent Effect” in the data set on RAW264.7 [8]; “Non-Toxic” in data set [10]; “Non-Toxic” in data set [12]; “Non-Toxic” in [13]; “Non-Toxic” in [14]. The Activity result in [15] and in data set [16] was “Non-Toxic” in each case. Further, the “fold change (FC)” value in data set [9] stood at 1.3; in data set [11], 2.8. In addition, the outcome in the data set on B16-OVA melanoma cell was inactive.
